This note sets out measurements from patent publication US20190248779A1, “COMPOUNDS, COMPOSITIONS, AND METHODS FOR INCREASING CFTR ACTIVITY” (Proteostasis Therapeutics, Inc., priority 2016, published 2019).

Each structure is given as a SMILES string.

In this experiment the target is T1, ΔF508-CFTR (Homo sapiens, UniProt P13569, DEL508-508).
T1 construct: Primary lung epithelial cells homozygous for the Cystic Fibrosis-causing ΔF508 mutation were differentiated for a minimum of 4 weeks; endogenous in cells; host or cells: primary lung (bronchial) epithelial cells (hBE) homozygous for ΔF508, differentiated at an air-liquid interface
Description: hBE equivalent current (Ieq) assay. Format: cell-based. The conditions noted are these: 24 h, relative to a CFTR amplifier at 3 uM, AUC of equivalent chloride current, primary lung epithelial cells homozygous for ΔF508; for Activity 3 μM: compound at 3 μM; for Activity 10 μM: compound at 10 μM. How it is done: ii. hBE Equivalent Current (Ieq) Assay
Primary lung epithelial cells homozygous for the Cystic Fibrosis-causing ΔF508 mutation were differentiated for a minimum of 4 weeks in an air-liquid interface on Costar 24 well HTS filter plates prior to the equivalent current (Ieq) measurements. Cells were apically mucus-washed for 30 minutes 24 h prior to treatment with compounds. The basolateral media was removed and replaced with media containing the compound of interest diluted to its final concentration from DMSO stocks. Treated cells were incubated at 37° C. and 5% CO2 for 24 hours. At the end of the treatment period, the media was changed to the Ieq experimental solution for 2 hours before the experiment and plates are maintained in a CO2-free incubator during this period. The plates containing the cells were then placed in pre-warmed heating blocks at 36° C.±0.5 for 15 minutes before measurements are taken. The transepithelial voltage (VT) and conductance (GT) were measured using a custom 24 channel current clamp (TECC-24) with 24 well electrode manifold. The Ieq assay measurements were made following additions with standardized time periods:
1. The baseline VT and GT values were measured for approximately 20 minutes.
2. Benzamil was added to block ENaC for 15 minutes.
3. Forskolin plus VX-770 were added to maximally activate ΔF508-CFTR for 27 minutes.
4. Bumetanide was added to inhibit the NaK2Cl cotransporter and shut-off secretion of chloride.
The activity data captured was the area under the curve (AUC) for the traces of the equivalent chloride current. The AUC was collected from the time of the forskolin/VX-770 addition until the inhibition by bumetanide addition. Correction in response to compound treatment was scored as the increase in the AUC for compound-treated samples over that of vehicle-treated samples.
The results are shown below in Table 1. + indicates activity <150% of a CFTR amplifier with compound at concentration shown and amplifier at 3 uM; ++ indicates activity >150% of a CFTR amplifier with compound at concentration shown and amplifier at 3 uM.

T1 sequence (P13569 with tags, fused parts or gaps DEL508-508): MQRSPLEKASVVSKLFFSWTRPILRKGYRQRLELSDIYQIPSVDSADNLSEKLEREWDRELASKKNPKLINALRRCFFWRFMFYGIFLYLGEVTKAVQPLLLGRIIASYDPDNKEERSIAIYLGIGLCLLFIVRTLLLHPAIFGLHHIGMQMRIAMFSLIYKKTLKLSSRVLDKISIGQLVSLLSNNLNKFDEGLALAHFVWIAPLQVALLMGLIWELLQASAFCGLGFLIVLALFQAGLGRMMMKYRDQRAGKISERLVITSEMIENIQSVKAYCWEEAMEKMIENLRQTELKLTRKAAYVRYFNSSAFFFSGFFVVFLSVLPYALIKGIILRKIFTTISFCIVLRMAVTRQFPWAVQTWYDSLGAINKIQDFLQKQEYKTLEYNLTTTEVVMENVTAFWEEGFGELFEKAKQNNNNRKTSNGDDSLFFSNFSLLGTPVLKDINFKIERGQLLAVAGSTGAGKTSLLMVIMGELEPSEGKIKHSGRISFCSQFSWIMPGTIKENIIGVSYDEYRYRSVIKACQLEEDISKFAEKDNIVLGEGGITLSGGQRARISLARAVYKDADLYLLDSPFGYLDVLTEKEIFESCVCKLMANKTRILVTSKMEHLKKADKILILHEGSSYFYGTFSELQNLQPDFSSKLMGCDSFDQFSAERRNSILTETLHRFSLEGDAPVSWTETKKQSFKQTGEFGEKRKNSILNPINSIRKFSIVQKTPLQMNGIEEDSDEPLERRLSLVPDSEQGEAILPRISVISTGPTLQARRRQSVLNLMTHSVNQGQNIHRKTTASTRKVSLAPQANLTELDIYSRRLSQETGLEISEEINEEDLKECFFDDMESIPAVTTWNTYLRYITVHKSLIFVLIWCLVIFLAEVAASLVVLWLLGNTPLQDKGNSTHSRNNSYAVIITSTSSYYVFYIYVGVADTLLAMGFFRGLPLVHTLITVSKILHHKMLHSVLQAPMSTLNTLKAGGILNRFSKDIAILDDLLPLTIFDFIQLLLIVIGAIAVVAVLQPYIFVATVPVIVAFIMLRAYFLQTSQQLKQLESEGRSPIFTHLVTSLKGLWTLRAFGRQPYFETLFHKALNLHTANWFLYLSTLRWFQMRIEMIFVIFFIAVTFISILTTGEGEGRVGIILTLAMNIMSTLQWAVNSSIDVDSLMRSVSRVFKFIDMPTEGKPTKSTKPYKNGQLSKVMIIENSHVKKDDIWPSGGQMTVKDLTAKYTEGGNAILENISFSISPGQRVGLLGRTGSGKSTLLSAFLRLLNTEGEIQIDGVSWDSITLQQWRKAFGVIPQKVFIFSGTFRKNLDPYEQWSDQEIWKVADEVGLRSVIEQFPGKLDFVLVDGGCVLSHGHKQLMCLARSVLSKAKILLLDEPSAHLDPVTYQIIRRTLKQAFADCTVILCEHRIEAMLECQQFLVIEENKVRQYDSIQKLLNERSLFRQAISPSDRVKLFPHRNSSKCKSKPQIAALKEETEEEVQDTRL

As for `COc1cccc(-c2ccc(=O)n(C(C)C(=O)Nc3ccc4cc[nH]c4c3)n2)c1` (centres unmarked) [Compound 2, N-(1H-Indol-6-yl)-2-[3-(3-methoxyphenyl)-6-oxo-1,6-dihydropyridazin-1-yl]propanamide], the “Activity 3 μM” value is “+ (activity <150% of a CFTR amplifier with compound at concentration shown and amplifier at 3 uM)”; the “Activity 10 μM” value was “+ (activity <150% of a CFTR amplifier with compound at concentration shown and amplifier at 3 uM)”.

Regarding `COc1cccc(-c2ccc(=O)n(C(C)C(=O)Nc3ccc4[nH]ccc4c3)n2)c1` (centres unmarked) [Compound 3, N-(1H-Indol-5-yl)-2-(3-(3-methoxyphenyl)-6-oxopyridazin-1(6H)-yl)propanamide], the “Activity 3 μM” value is “+ (activity <150% of a CFTR amplifier with compound at concentration shown and amplifier at 3 uM)”; the “Activity 10 μM” value is “+ (activity <150% of a CFTR amplifier with compound at concentration shown and amplifier at 3 uM)”.

On to `COc1cccc(-c2ccc(=O)n(C(C)C(=O)NC3CCCCC3)n2)c1` (centres unmarked) [Compound 4, N-Cyclohexyl-2-(3-(3-methoxyphenyl)-6-oxopyridazin-1(6H)-yl)propanamide], for which the “Activity 3 μM” value is “+ (activity <150% of a CFTR amplifier with compound at concentration shown and amplifier at 3 uM)”; the “Activity 10 μM” value is “+ (activity <150% of a CFTR amplifier with compound at concentration shown and amplifier at 3 uM)”.

As to `COc1cccc(-c2ccc(=O)n(C(C)C(=O)Nc3ccccn3)n2)c1` (centres unmarked) [Compound 5, 2-(3-(3-Methoxyphenyl)-6-oxopyridazin-1(6H)-yl)-N-(pyridin-2-yl)propanamide], the “Activity 3 μM” value is “+ (activity <150% of a CFTR amplifier with compound at concentration shown and amplifier at 3 uM)”; the “Activity 10 μM” value is “+ (activity <150% of a CFTR amplifier with compound at concentration shown and amplifier at 3 uM)”.

For the compound `COc1cccc(-c2ccc(=O)n(C(C)C(=O)Nc3cccnc3)n2)c1` (centres unmarked) [Compound 6, 2-(3-(3-Methoxyphenyl)-6-oxopyridazin-1(6H)-yl)-N-(pyridin-3-yl)propanamide], the “Activity 3 μM” value is “+ (activity <150% of a CFTR amplifier with compound at concentration shown and amplifier at 3 uM)”; the “Activity 10 μM” value is “+ (activity <150% of a CFTR amplifier with compound at concentration shown and amplifier at 3 uM)”.

For `CC(C(=O)Nc1cc(F)cc(F)c1)n1nc(-c2ccc3cc[nH]c3c2)ccc1=O` (centres unmarked) [Compound 7, 2-(3-(1H-Indol-6-yl)-6-oxopyridazin-1(6H)-yl)-N-(3,5-difluorophenyl)propanamide], the “Activity 3 μM” value is “+ (activity <150% of a CFTR amplifier with compound at concentration shown and amplifier at 3 uM)”; the “Activity 10 μM” value was “+ (activity <150% of a CFTR amplifier with compound at concentration shown and amplifier at 3 uM)”.

Turning to `COc1cccc(-c2ccc(=O)n(C(C)C(=O)Nc3ccc(C(F)(F)F)cn3)n2)c1` (centres unmarked) [Compound 8, 2-[3-(3-Methoxyphenyl)-6-oxo-1,6-dihydropyridazin-1-yl]-N-[5-(trifluoromethyl)pyridin-2-yl]propanamide], the “Activity 3 μM” value was “++ (activity >150% of a CFTR amplifier with compound at concentration shown and amplifier at 3 uM)”; the “Activity 10 μM” value is “++ (activity >150% of a CFTR amplifier with compound at concentration shown and amplifier at 3 uM)”.

Turning to `COc1cccc(-c2ccc(=O)n(C(C)C(=O)Nc3ccc(C(F)(F)F)nc3)n2)c1` (centres unmarked) [Compound 9, 2-(3-(3-Methoxyphenyl)-6-oxopyridazin-1(6H)-yl)-N-(6-(trifluoromethyl)pyridin-3-yl)propanamide], the “Activity 3 μM” value is “++ (activity >150% of a CFTR amplifier with compound at concentration shown and amplifier at 3 uM)”; the “Activity 10 μM” value was “+ (activity <150% of a CFTR amplifier with compound at concentration shown and amplifier at 3 uM)”.

`COc1cccc(-c2ccc(=O)n(C(C)C(=O)Nc3cccc(C(F)(F)F)n3)n2)c1` (centres unmarked) [Compound 10, 2-(3-(3-Methoxyphenyl)-6-oxopyridazin-1(6H)-yl)-N-(6-(trifluoromethyl)pyridin-2-yl)propanamide]: the “Activity 3 μM” value was “++ (activity >150% of a CFTR amplifier with compound at concentration shown and amplifier at 3 uM)”; the “Activity 10 μM” value is “++ (activity >150% of a CFTR amplifier with compound at concentration shown and amplifier at 3 uM)”.

As for `COc1cccc(-c2ccc(=O)n(C(C)C(=O)Nc3cc(C(F)(F)F)ccn3)n2)c1` (centres unmarked) [Compound 11, 2-(3-(3-Methoxyphenyl)-6-oxopyridazin-1(6H)-yl)-N-(4-(trifluoromethyl)pyridin-2-yl)propanamide], the “Activity 3 μM” value was “++ (activity >150% of a CFTR amplifier with compound at concentration shown and amplifier at 3 uM)”; the “Activity 10 μM” value was “++ (activity >150% of a CFTR amplifier with compound at concentration shown and amplifier at 3 uM)”.

For the compound `COc1cccc(-c2ccc(=O)n(C(C)C(=O)Nc3cncc(C(F)(F)F)c3)n2)c1` (centres unmarked) [Compound 12, 2-(3-(3-Methoxyphenyl)-6-oxopyridazin-1(6H)-yl)-N-(5-(trifluoromethyl)pyridin-3-yl)propanamide], the “Activity 3 μM” value is “+ (activity <150% of a CFTR amplifier with compound at concentration shown and amplifier at 3 uM)”; the “Activity 10 μM” value is “+ (activity <150% of a CFTR amplifier with compound at concentration shown and amplifier at 3 uM)”.

As to `CC(C(=O)Nc1ccc(C(F)(F)F)cc1)n1nc(-c2cccs2)ccc1=O` (centres unmarked) [Compound 13, 2-[6-oxo-3-(thiophen-2-yl)-1,6-dihydropyridazin-1-yl]-N-[4-(trifluoromethyl)phenyl]propanamide], the “Activity 3 μM” value was “++ (activity >150% of a CFTR amplifier with compound at concentration shown and amplifier at 3 uM)”; the “Activity 10 μM” value was “+ (activity <150% of a CFTR amplifier with compound at concentration shown and amplifier at 3 uM)”.

Take `CC(C(=O)Nc1ccc(C(F)(F)F)cc1)n1nc(-c2ccc(Cl)s2)ccc1=O` (centres unmarked) [Compound 14, 2-(3-(5-Chlorothiophen-2-yl)-6-oxopyridazin-1(6H)-yl)-N-(4-(trifluoromethyl)phenyl)propanamide]: the “Activity 3 μM” value was “++ (activity >150% of a CFTR amplifier with compound at concentration shown and amplifier at 3 uM)”; the “Activity 10 μM” value was “++ (activity >150% of a CFTR amplifier with compound at concentration shown and amplifier at 3 uM)”.

As to `CC(C(=O)Nc1ccc(C(F)(F)F)cc1)n1nc(-c2ccsc2)ccc1=O` (centres unmarked) [Compound 15, 2-(6-Oxo-3-(thiophen-3-yl)pyridazin-1(6H)-yl)-N-(4-(trifluoromethyl)phenyl)propanamide], the “Activity 3 μM” value is “++ (activity >150% of a CFTR amplifier with compound at concentration shown and amplifier at 3 uM)”; the “Activity 10 μM” value is “+ (activity <150% of a CFTR amplifier with compound at concentration shown and amplifier at 3 uM)”.

On to `CC(C(=O)Nc1ccc(C(F)(F)F)cc1)n1nc(-c2csc(Cl)c2)ccc1=O` (centres unmarked) [Compound 16, 2-[3-(5-Chlorothiophen-3-yl)-6-oxo-1,6-dihydropyridazin-1-yl]-N-[4-(trifluoromethyl)phenyl]propanamide], for which the “Activity 3 μM” value is “++ (activity >150% of a CFTR amplifier with compound at concentration shown and amplifier at 3 uM)”; the “Activity 10 μM” value is “++ (activity >150% of a CFTR amplifier with compound at concentration shown and amplifier at 3 uM)”.

For `CC(C(=O)Nc1ccc(C(F)(F)F)cn1)n1nc(-c2cccc(Cl)c2)ccc1=O` (centres unmarked) [Compound 17, 2-(3-(3-Chlorophenyl)-6-oxopyridazin-1(6H)-yl)-N-(5-(trifluoromethyl)pyridin-2-yl)propanamide], the “Activity 3 μM” value was “++ (activity >150% of a CFTR amplifier with compound at concentration shown and amplifier at 3 uM)”; the “Activity 10 μM” value is “++ (activity >150% of a CFTR amplifier with compound at concentration shown and amplifier at 3 uM)”.

In the case of `COc1csc(-c2ccc(=O)n(C(C)C(=O)Nc3ccc(C(F)(F)F)cc3)n2)c1` (centres unmarked) [Compound 18, 2-(3-(4-Methoxythiophen-2-yl)-6-oxopyridazin-1(6H)-yl)-N-(4-(trifluoromethyl)phenyl)propanamide], the “Activity 10 μM” value is “+ (activity <150% of a CFTR amplifier with compound at concentration shown and amplifier at 3 uM)”.

With `COc1cc(-c2ccc(=O)n(C(C)C(=O)Nc3ccc(C(F)(F)F)cc3)n2)ccn1` (centres unmarked) [Compound 19, 2-(3-(2-Methoxypyridin-4-yl)-6-oxopyridazin-1(6H)-yl)-N-(4-(trifluoromethyl)phenyl)propanamide], the “Activity 3 μM” value was “+ (activity <150% of a CFTR amplifier with compound at concentration shown and amplifier at 3 uM)”; the “Activity 10 μM” value is “+ (activity <150% of a CFTR amplifier with compound at concentration shown and amplifier at 3 uM)”.
